Results: patent US20140350273A1, “PEDIATRIC USES OF CABAZITAXEL” (AVENTIS PHARMA S.A., priority 2012, published 2014)
Read-outs that look alike come from different tables or passages of the source.

System: human rhabdomyosarcoma RH-30
Assay type: in vivo
Conditions: for Average body weight change in % per mouse at nadir / Drug death (Day of death) / Regressions Complete / Regressions Partial / Tumor free survivors at day 120 / day of nadir / Biological interpretation / ΔT/ΔC in % (day 27): 18
Procedure: This efficacy may be quantified, for example, as changes in tumor volume for each treated (T) and control (C) group, which are calculated for each animal and each day by subtracting the tumor volume on the day of first treatment (staging day) from the tumor volume on the specified observation day. This allows calculating the tumor growth inhibition: ΔT/ΔC=(median delta T/median delta C)×100. Individual tumor volume changes from baseline are thereafter analyzed by a non-parametric two-way ANOVA-TYPE (with factors: group and repeated days) followed by a post-hoc contrasts analysis, with Bonferroni-Holm adjustment for multiplicity, comparing all treated groups to the control group. […] A probability less than 5% (p<0.05) was considered as significant.
Based on the National Cancer Institute (NCl) standards, a ΔT/ΔC≦40% is the minimal level required to declare activity.
The tumor doubling time (in days; Td) was estimated from the plot of the log linear growth of the control group tumors in exponential growth (100 to 1000 mm^3 range) [T. H. Corbett et al., Cancer, 40: 2660-2680 (1977); F. M. Schabel et al., Cancer Drug Development, Part B, Methods in Cancer Research, 17: 3-51, New York, Academic Press Inc. (1979)].
This efficacy may also be quantified by the number of tumor regressions observed after therapy. Individual mice reporting a tumor volume ≦50% of the Day 0 measurement for two consecutive measurements over a seven day period were considered partial responders (PR). Individual mice lacking palpable tumors (<4×4 mm^2 for two consecutive measurements over a seven day period) were classified as complete responders (CR); a CR that persisted until study completion was considered a tumor-free survivor (TFS).
The animals subjected to the experiment are subcutaneously grafted unilaterally with approximately 30 mg of a tumor fragment on day 0. The animals are implanted with a human tumor xenografted in immunocompromized mice. Several days post tumor implantation, mice are randomized according to their body weight to the different groups of treatments and controls. The animals are observed every day. […] The groups are then weighed once or twice a week until the end of the trial.
The tumors are measured 1 to 5 times a week, depending on the tumor doubling time, until the tumor reaches approximately 1,000 mm^3, or until the animal dies (if this occurs before the tumor reaches 1,000 mm^3). The animals are necropsied immediately after euthanasia or death.
The selected tumor model was a human rhabdomyosarcoma RH-30, xenografted in SCID mice [Douglass E C, et al. Cytogenet Cell Genet. 1987; 45(3-4):14855.].
Treatment solutions were prepared first by mixing 1 volume of ethanolic stock solution and 1 volume of polysorbate 80, then by adding 18 volumes of glucose 5% in water.

[1] = 3.5 mg/kg per injection (total 7.0) IV days 14
[2] = 3.5 mg/kg per injection (total 7.0) IV days 14, listed as DOCETAXEL
[3] = 3.5 mg/kg per injection (total 7.0) IV days 14, listed as docetaxel
[4] = 5.6 mg/kg per injection (total 11.2) IV days 14
[5] = 5.6 mg/kg per injection (total 11.2) IV days 14, listed as DOCETAXEL
[6] = 9.0 mg/kg per injection (total 18) IV days 14
[7] = 9.0 mg/kg per injection (total 18) IV days 14, listed as DOCETAXEL
[8] = 14.5 mg/kg per injection (total 29) IV days 14
[9] = 14.5 mg/kg per injection (total 29) IV days 14, listed as DOCETAXEL
[10] = 14.5 mg/kg per injection (total 29) IV days 14, listed as docetaxel

## CC(=O)O[C@@]12CO[C@@H]1C[C@H](O)[C@@]1(C)C(=O)[C@H](O)C3=C(C)[C@@H](OC(=O)[C@H](O)[C@@H](NC(=O)OC(C)(C)C)c4ccccc4)C[C@@](O)([C@@H](OC(=O)c4ccccc4)[C@H]21)C3(C)C [Docetaxel, docetaxel]
[1]
  Average body weight change in % per mouse at nadir: −1.8%
  Drug death (Day of death): 0/6
  Regressions Complete: 0/6
  Regressions Partial: 0/6
  Tumor free survivors at day 120: 0/6
  day of nadir: (15) day
[2]
  Biological interpretation: Inactive
  ΔT/ΔC in % (day 27): 77%
[3]
  Biological interpretation: inactive
  ΔT/ΔC in % (day 27): > 40%
3.5 mg/kg, day 19
  Tumor volume changes from baseline: Median (nMad): 477
3.5 mg/kg, day 20
  Tumor volume changes from baseline: Median (nMad): 475
3.5 mg/kg, day 22
  Tumor volume changes from baseline: Median (nMad): 495.5
3.5 mg/kg, day 25
  Tumor volume changes from baseline: Median (nMad): 621.5
3.5 mg/kg, day 27
  Tumor volume changes from baseline: Median (nMad): 736
3.5 mg/kg, day 29
  Tumor volume changes from baseline: Median (nMad): 905.5
[4]
  Average body weight change in % per mouse at nadir: −12.1%
  Drug death (Day of death): 0/6
  Regressions Complete: 0/6
  Regressions Partial: 4/6
  Tumor free survivors at day 120: 0/6
  day of nadir: (25) day
[5]
  Biological interpretation: Highly
  ΔT/ΔC in % (day 27): <0%
5.6 mg/kg per injection (total 11.2) IV days 14, listed as docetaxel
  Biological interpretation: highly active
5.6 mg/kg, day 18
  Tumor volume changes from baseline: Median (nMad): 218 (84.5)
5.6 mg/kg, day 19
  Tumor volume changes from baseline: Median (nMad): 289 (57.1)
5.6 mg/kg, day 20
  Tumor volume changes from baseline: Median (nMad): 409.5
5.6 mg/kg, day 22
  Tumor volume changes from baseline: Median (nMad): 405.5
5.6 mg/kg, day 25
  Tumor volume changes from baseline: Median (nMad): −30.5
5.6 mg/kg, day 29
  Tumor volume changes from baseline: Median (nMad): −47 (89.7)
5.6 mg/kg, day 33
  Tumor volume changes from baseline: Median (nMad): 67 (262.4)
5.6 mg/kg, day 39
  Tumor volume changes from baseline: Median (nMad): 454.5
5.6 mg/kg, day 41
  Tumor volume changes from baseline: Median (nMad): 712
5.6 mg/kg, day 43
  Tumor volume changes from baseline: Median (nMad): 1039.5
5.6 mg/kg, day 35
  Tumor volume changes from baseline: Median (nMad): 129
[6]
  Average body weight change in % per mouse at nadir: −11.2%
  Drug death (Day of death): 0/6
  Regressions Complete: 0/6
  Regressions Partial: 2/6
  Tumor free survivors at day 120: 0/6
  day of nadir: (25) day
[7]
  Biological interpretation: Highly
  ΔT/ΔC in % (day 27): <0%
9.0 mg/kg per injection (total 18) IV days 14, listed as docetaxel
  Biological interpretation: highly active
9 mg/kg, day 18
  Tumor volume changes from baseline: Median (nMad): 202 (98.6)
9 mg/kg, day 19
  Tumor volume changes from baseline: Median (nMad): 202 (71.9)
9 mg/kg, day 20
  Tumor volume changes from baseline: Median (nMad): 325
9 mg/kg, day 22
  Tumor volume changes from baseline: Median (nMad): 290.5
9 mg/kg, day 25
  Tumor volume changes from baseline: Median (nMad): 115.5
9 mg/kg, day 29
  Tumor volume changes from baseline: Median (nMad): 119.5
9 mg/kg, day 33
  Tumor volume changes from baseline: Median (nMad): 272
9 mg/kg, day 39
  Tumor volume changes from baseline: Median (nMad): 676
9 mg/kg, day 41
  Tumor volume changes from baseline: Median (nMad): 904.5
9 mg/kg, day 43
  Tumor volume changes from baseline: Median (nMad): 909
[8]
  Average body weight change in % per mouse at nadir: −17.6%
  Drug death (Day of death): 0/6
  Regressions Complete: 3/6
  Regressions Partial: 5/6
  day of nadir: (27) day
  ΔT/ΔC in % (day 27): 1%
[9]
  Biological interpretation: Very
  Tumor free survivors at day 120: 0/6
[10]
  Biological interpretation: very active
  Tumor free survivors at day 120: without TFS
14.5 mg/kg, day 18
  Tumor volume changes from baseline: Median (nMad): 166.5
14.5 mg/kg, day 19
  Tumor volume changes from baseline: Median (nMad): 195 (83)
14.5 mg/kg, day 25
  Tumor volume changes from baseline: Median (nMad): 154.5
14.5 mg/kg, day 27
  Tumor volume changes from baseline: Median (nMad): 13 (67.5)
14.5 mg/kg, day 29
  Tumor volume changes from baseline: Median (nMad): 87 (100.8)
14.5 mg/kg, day 33
  Tumor volume changes from baseline: Median (nMad): 17 (111.2)
14.5 mg/kg, day 46
  Tumor volume changes from baseline: Median (nMad): 18.5
14.5 mg/kg, day 50
  Tumor volume changes from baseline: Median (nMad): 485
14.5 mg/kg, day 35
  Tumor volume changes from baseline: Median (nMad): −80 (63.8)
14.5 mg/kg, day 39
  Tumor volume changes from baseline: Median (nMad): −112
14.5 mg/kg, day 41
  Tumor volume changes from baseline: Median (nMad): −96 (78.6)
14.5 mg/kg, day 43
  Tumor volume changes from baseline: Median (nMad): −72.5
